Here are results for one compound from publication PMC3340383, “Synthesis and Evaluation of a Series of 2-Substituted-5-Thiopropylpiperazine (Piperidine)-1,3,4-Oxadiazoles Derivatives as Atypical Antipsychotics” (PLoS ONE, 2012).

In one data set the test system is catalepsy in mice. The experiment in a line: Catalepsy test (horizontal bar). The conditions noted are these: po.
The target of data set [1] is T1, serotonin 5-HT1A receptor (Rattus norvegicus, UniProt P19327).
T1 construct: Rat cerebral cortex was homogenized in 20 volumes of ice-cold Tris-HCl buffer; from tissue; host or cells: rat brain (cerebral) cortex
T1 sequence (P19327 1-422): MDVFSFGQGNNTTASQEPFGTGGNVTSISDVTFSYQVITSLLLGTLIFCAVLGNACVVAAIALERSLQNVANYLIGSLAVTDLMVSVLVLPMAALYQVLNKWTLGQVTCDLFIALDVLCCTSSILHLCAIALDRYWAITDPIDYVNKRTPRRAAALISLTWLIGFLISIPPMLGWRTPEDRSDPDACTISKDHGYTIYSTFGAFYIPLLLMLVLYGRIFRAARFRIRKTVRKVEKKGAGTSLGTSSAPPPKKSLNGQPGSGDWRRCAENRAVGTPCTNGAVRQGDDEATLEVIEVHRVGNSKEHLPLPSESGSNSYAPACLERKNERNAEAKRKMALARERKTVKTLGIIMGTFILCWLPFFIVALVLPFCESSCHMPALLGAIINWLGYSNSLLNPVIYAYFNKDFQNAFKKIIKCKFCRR
The experiment in a line: 5-HT1A binding assay ([3H]8-OH-DPAT, rat brain cortex). The following applies: [3H]8-OH-DPAT, rat brain cortex; mean of three experiments; >10000 marked b: Ki not calculated, inhibition at 10 µM too low; read-out: Ki±SEM, 5HT1A. How it is done: All the new compounds were dissolved in 5% DMSO. The following specific radioligands and tissue sources were used: (a) serotonin 5-HT1A receptor, [^3H]8-OH-DPAT, rat brain cortex; (b) serotonin 5-HT2A receptor, [^3H]ketanserin, rat brain cortex; (c) serotonin 5-HT2C receptor, [^3H]mesulergine, rat brain cortex; (d) dopamine D2 receptor, [^3H]spiperone, rat striatum; (e) dopamine D3 receptor, [^3H]spiperone, rat olfactory tubercle (f) histamine H1 receptor, [^3H] pyrilamine, guinea pig cerebellum.
Total binding was determined in the absence of no-specific binding and compounds. Specific binding was determined in the presence of compounds. Non-specific binding was determined as the difference between total and specific binding.
Percentage of inhibition (%) = (total binding − specific binding)×100%/(total binding − nonspecific binding).
Ki values were calculated based on the Cheng and Prussoff equation: Ki = IC50/(1+C/Kd) where C represents the concentration of the hot ligand used and Kd its receptor dissociation constant were calculated for each labeled ligand. Mean Ki values and SEM were reported for at least three independent experiments.
Rat cerebral cortex was homogenized in 20 volumes of ice-cold Tris-HCl buffer (50 mM, pH 7.7) using an ULTRA TURAX homogeniser, and was then centrifuged at 32000 g for 10 min. […] The final pellet was resuspended in Tris-HCl buffer containing 10 µM Pargyline, 4 mM CaCl2 and 0.1% ascorbic acid.
Total binding each assay tube was added 900 µL of the tissue suspension, 50 µL of 0.5 nM [^3H]8-OH-DPAT (187.4 Ci/mmol, Perkin Elmer Life Sciences, Boston, MA, USA), 50 µL Tris-HCl buffer containing 10 µM Pargyline, 4 mM CaCl2 and 0.1% ascorbic acid.
Non-specific binding each assay tube was added 900 µL of the tissue suspension, 50 µL of 0.5 nM [^3H]8-OH-DPAT, 50 µL of 10 µM serotonin.
Specific binding each assay tube was added 900 µL of the tissue suspension, 50 µL of 0.5 nM [^3H]8-OH-DPAT, 50 µL of new compounds or reference drug.
The incubation was followed by a rapid vacuum filtration through Whatman GF/B glass filters, and the filtrates were washed twice with 5mL cold buffer and transferred to scintillation vials. Scintillation fluid (3.0 mL) was added and the radioactivity bound was measured using a Beckman LS 6500 liquid scintillation counter.

A short description of data set [2]: Pharmacokinetics study in rat. Format: in vivo. The following applies: rats. Here is the method:
The HPLC conditions were as follows: column, Shim-pack ODS 5.0 µm×150 mm×2.0 mm I.D (SHIMADZU, Japanese); mobile phase, 0.0167% HCOOH (TEDIA Company, USA)/acetonitrile (Merck Company, Germany)50/50; flow rate, 0.2 mL/min; column temperature, 40°C.
For routine compound 22 screening rats (n = 6/group) were dosed via the lateral tail vein at the indicated dose for intravenous administration (5 mg/kg, 100% saline) or via oral gavage (20 mg/kg, suspension in 0.5% methylcellulose). At 30 min, 1 h, 2 h, 3 h, 4 h, 5 h, 6 h, 7 h and 24 h after administration, serial blood samples were collected from the lateral tail vein into heparinized collection tubes (approximately 0.25 mL). The plasma was separated by centrifugation, and the sample was prepared for analysis HPLC/MS by protein precipitation with acetonitrile. The plasma samples were analyzed for drug and internal standard via HPLC-MS/MS protocol.

Bounds are passed on as bounds.

In the case of `Fc1ccc2c(C3CCN(CCCSc4nnc(-c5cccc6ccccc56)o4)CC3)noc2c1` [Compound 22, 2-(3-(4-(6-fluorobenzo[d]isoxazol-3-yl)piperidin-1-yl)propylthio)-5-(naphthalen-1-yl)-1,3,4-oxadiazole], in the data set on catalepsy in mice, the “CAT (catalepsy) ED50 (C)” value was over 300 mg/kg. Moreover, in data set [1], the Ki is 4.6 ± 0.8 nM. In data set [2] (i.v. 5 mg/kg, plasma, n = 6), this compound showed an AUC0-inf of 6239.0 ng·h/mL and a t1/2 of 9.3 h. Besides, in data set [2] (oral 20 mg/kg vs i.v. 5 mg/kg), the “F (bioavailability)” value stood at 54.5%. Also, in data set [2] (oral 20 mg/kg, plasma, n = 6), the AUC0-inf stood at 13602.7 ng·h/mL, the Cmax worked out at 723.6 ng/mL, the Tmax was 5 h and the t1/2 is 8.6 h.

Usually Ki stands for the equilibrium dissociation constant of an inhibitor or competing ligand from its target. The term Cmax denotes the maximum level reached in the sampled fluid or tissue. Broadly, the Tmax is the time at which the peak concentration occurs.
